Experimental data as given in PubChem BioAssay AID1259407 (Chemical Carcinogenesis Research Information System (CCRIS), 2018).
Active and inactive are the calls of the source. No rule for the calls is given here.

Tested on: CCRIS mutagenicity, Ames/micronucleus/aberration tests
Experiment: CCRIS mutagenicity studies
[1] = Test System: AMES SALMONELLA TYPHIMURIUM, Strain/Indicator: TA98, Metabolic Activation: NONE, Method: PREINCUBATION
[2] = Test System: AMES SALMONELLA TYPHIMURIUM, Strain/Indicator: TA100, Metabolic Activation: NONE, Method: PREINCUBATION
[3] = Test System: AMES SALMONELLA TYPHIMURIUM, Strain/Indicator: TA1535, Metabolic Activation: NONE, Method: PREINCUBATION
[4] = Test System: AMES SALMONELLA TYPHIMURIUM, Strain/Indicator: TA1537, Metabolic Activation: NONE, Method: PREINCUBATION
[5] = Test System: AMES SALMONELLA TYPHIMURIUM, Strain/Indicator: TA98, Metabolic Activation: NONE, Method: STANDARD PLATE
[6] = Test System: AMES SALMONELLA TYPHIMURIUM, Strain/Indicator: TA100, Metabolic Activation: NONE, Method: STANDARD PLATE

With CC(C)(C)N the mutagenic call (Test System: AMES SALMONELLA TYPHIMURIUM, Strain/Indicator: TA98, Metabolic Activation: HAMSTER, LIVER, S-9, AROCLOR 1254 (10%), Method: PREINCUBATION) was “inactive; negative”, the mutagenic call [1] was “inactive; negative” and the mutagenic call (Test System: AMES SALMONELLA TYPHIMURIUM, Strain/Indicator: TA98, Metabolic Activation: RAT LIVER S-9, PHENOBARBITAL AND BETA-NAPHTHOFLAVONE, Method: PREINCUBATION) was “inactive; negative”. The mutagenic call (Test System: AMES SALMONELLA TYPHIMURIUM, Strain/Indicator: TA98, Metabolic Activation: RAT, LIVER, S-9, AROCLOR 1254 (10%), Method: PREINCUBATION) was “inactive; negative”, the mutagenic call (Test System: AMES SALMONELLA TYPHIMURIUM, Strain/Indicator: TA100, Metabolic Activation: HAMSTER, LIVER, S-9, AROCLOR 1254 (10%), Method: PREINCUBATION) was “inactive; negative” and the mutagenic call [2] was “inactive; negative”. For the same molecule, the mutagenic call (Test System: AMES SALMONELLA TYPHIMURIUM, Strain/Indicator: TA100, Metabolic Activation: RAT LIVER S-9, PHENOBARBITAL AND BETA-NAPHTHOFLAVONE, Method: PREINCUBATION) was “inactive; negative”, the mutagenic call (Test System: AMES SALMONELLA TYPHIMURIUM, Strain/Indicator: TA100, Metabolic Activation: RAT, LIVER, S-9, AROCLOR 1254 (10%), Method: PREINCUBATION) was “inactive; negative” and the mutagenic call (Test System: AMES SALMONELLA TYPHIMURIUM, Strain/Indicator: TA1535, Metabolic Activation: HAMSTER, LIVER, S-9, AROCLOR 1254 (10%), Method: PREINCUBATION) was “inactive; negative”. For the same molecule, the mutagenic call [3] was “inactive; negative”, the mutagenic call (Test System: AMES SALMONELLA TYPHIMURIUM, Strain/Indicator: TA1535, Metabolic Activation: RAT LIVER S-9, PHENOBARBITAL AND BETA-NAPHTHOFLAVONE, Method: PREINCUBATION) was “inactive; negative” and the mutagenic call (Test System: AMES SALMONELLA TYPHIMURIUM, Strain/Indicator: TA1535, Metabolic Activation: RAT, LIVER, S-9, AROCLOR 1254 (10%), Method: PREINCUBATION) was “inactive; negative”. For the same molecule, the mutagenic call (Test System: AMES SALMONELLA TYPHIMURIUM, Strain/Indicator: TA1537, Metabolic Activation: HAMSTER, LIVER, S-9, AROCLOR 1254 (10%), Method: PREINCUBATION) was “inactive; negative”, the mutagenic call [4] was “inactive; negative” and the mutagenic call (Test System: AMES SALMONELLA TYPHIMURIUM, Strain/Indicator: TA1537, Metabolic Activation: RAT LIVER S-9, PHENOBARBITAL AND BETA-NAPHTHOFLAVONE, Method: PREINCUBATION) was “inactive; negative”. For the same molecule, the mutagenic call (Test System: AMES SALMONELLA TYPHIMURIUM, Strain/Indicator: TA1537, Metabolic Activation: RAT, LIVER, S-9, AROCLOR 1254 (10%), Method: PREINCUBATION) was “inactive; negative”, the mutagenic call (Test System: E.COLI, Strain/Indicator: WP2UVRA/PKM101, Metabolic Activation: NONE, Method: PREINCUBATION) was “inactive; negative” and the mutagenic call (Test System: E.COLI, Strain/Indicator: WP2UVRA/PKM101, Metabolic Activation: RAT LIVER S-9, PHENOBARBITAL AND BETA-NAPHTHOFLAVONE, Method: PREINCUBATION) was “inactive; negative”.

For O=S(O)S(=O)(=O)O, the mutagenic call (End Point: In vitro chromosomal aberration, Test System: Human lymphocytes, Metabolic Activation: None) was “active; positive (structural changes)”, the mutagenic call (End Point: In vitro micronucleus, Test System: Human lymphocytes, Metabolic Activation: None) was “active; positive” and the mutagenic call (End Point: In vivo micronucleus, Test System: Bone marrow cells, Species: Rat, Strain/Sex: Rattus norvegicus var. albino / Male, female, Route: Intraperitoneal) was “active; positive (structural changes)”. The mutagenic call (Test System: AMES SALMONELLA TYPHIMURIUM, Strain/Indicator: TA97, Metabolic Activation: NONE, Method: PREINCUBATION) was “inactive; negative”, the mutagenic call (Test System: AMES SALMONELLA TYPHIMURIUM, Strain/Indicator: TA97, Metabolic Activation: RAT, LIVER, S-9, AROCLOR 1254, Method: PREINCUBATION) was “inactive; negative” and the mutagenic call [5] was “inactive; negative”. The mutagenic call (Test System: AMES SALMONELLA TYPHIMURIUM, Strain/Indicator: TA98, Metabolic Activation: RAT, LIVER, S-9, AROCLOR 1254, Method: STANDARD PLATE) was “inactive; negative”, the mutagenic call [6] was “inactive; negative” and the mutagenic call (Test System: AMES SALMONELLA TYPHIMURIUM, Strain/Indicator: TA100, Metabolic Activation: RAT, LIVER, S-9, AROCLOR 1254, Method: STANDARD PLATE) was “inactive; negative”. The mutagenic call (Test System: AMES SALMONELLA TYPHIMURIUM, Strain/Indicator: TA102, Metabolic Activation: NONE, Method: PREINCUBATION) was “inactive; negative”, the mutagenic call (Test System: AMES SALMONELLA TYPHIMURIUM, Strain/Indicator: TA102, Metabolic Activation: RAT, LIVER, S-9, AROCLOR 1254, Method: PREINCUBATION) was “inactive; negative” and the mutagenic call (Test System: AMES SALMONELLA TYPHIMURIUM, Strain/Indicator: TA1535, Metabolic Activation: NONE, Method: STANDARD PLATE) was “inactive; negative”. The mutagenic call (Test System: AMES SALMONELLA TYPHIMURIUM, Strain/Indicator: TA1535, Metabolic Activation: RAT, LIVER, S-9, AROCLOR 1254, Method: STANDARD PLATE) was “inactive; negative”, the mutagenic call (Test System: AMES SALMONELLA TYPHIMURIUM, Strain/Indicator: TA1537, Metabolic Activation: NONE, Method: STANDARD PLATE) was “inactive; negative” and the mutagenic call (Test System: AMES SALMONELLA TYPHIMURIUM, Strain/Indicator: TA1537, Metabolic Activation: RAT, LIVER, S-9, AROCLOR 1254, Method: STANDARD PLATE) was “inactive; negative”. The mutagenic call (Test System: AMES SALMONELLA TYPHIMURIUM, Strain/Indicator: TA1538, Metabolic Activation: NONE, Method: STANDARD PLATE) was “inactive; negative”, the mutagenic call (Test System: AMES SALMONELLA TYPHIMURIUM, Strain/Indicator: TA1538, Metabolic Activation: RAT, LIVER, S-9, AROCLOR 1254, Method: STANDARD PLATE) was “inactive; negative” and the mutagenic call (Test System: E. COLI, Strain/Indicator: WP2, Metabolic Activation: NONE, Method: STANDARD PLATE) was “inactive; negative”. For the same molecule, the mutagenic call (Test System: E. COLI, Strain/Indicator: WP2, Metabolic Activation: RAT, LIVER, S-9, AROCLOR 1254, Method: STANDARD PLATE) was “inactive; negative”.

With CC(=O)OCc1c2ccccc2c2ccc3cccc4ccc1c2c43 the mutagenic call [5] was “active; positive” and the mutagenic call [6] was “active; positive”.

In the case of CC[C@H]1OC(=O)[C@H](C)[C@@H](O[C@H]2C[C@@](C)(OC)[C@@H](O)[C@H](C)O2)[C@H](C)[C@@H](O[C@@H]2O[C@H](C)C[C@H](N(C)C)[C@H]2O)[C@](C)(O)C[C@@H](C)C(=O)[C@H](C)[C@@H](O)[C@]1(C)O, the mutagenic call (End Point: AMES SALMONELLA TYPHIMURIUM, Test System: TA98, Metabolic Activation: NONE, Method: STANDARD PLATE) is reported as “inactive; negative”, the mutagenic call (End Point: AMES SALMONELLA TYPHIMURIUM, Test System: TA100, Metabolic Activation: NONE, Method: STANDARD PLATE) is reported as “inactive; negative” and the mutagenic call (End Point: IN VITRO CHROMOSOMAL ABERRATIONS, Test System: CHO CELLS, Metabolic Activation: NONE) is reported as “inactive; negative; testing limited by solubility of the chemical”. For the same molecule, the mutagenic call (End Point: IN VITRO CHROMOSOMAL ABERRATIONS, Test System: CHO CELLS, Metabolic Activation: RAT, LIVER, S-9, AROCLOR 1254) was “inactive; negative; testing limited by solubility of the chemical”, the mutagenic call (Test System: AMES SALMONELLA TYPHIMURIUM, Strain/Indicator: TA98, Metabolic Activation: HAMSTER, LIVER, S-9, AROCLOR 1254, Method: PREINCUBATION) was “inactive; negative” and the mutagenic call [1] was “inactive; negative”. The mutagenic call (Test System: AMES SALMONELLA TYPHIMURIUM, Strain/Indicator: TA98, Metabolic Activation: RAT, LIVER, S-9, AROCLOR 1254, Method: PREINCUBATION) was “inactive; negative”, the mutagenic call (Test System: AMES SALMONELLA TYPHIMURIUM, Strain/Indicator: TA100, Metabolic Activation: HAMSTER, LIVER, S-9, AROCLOR 1254, Method: PREINCUBATION) was “inactive; negative” and the mutagenic call [2] was “inactive; negative”. For the same molecule, the mutagenic call (Test System: AMES SALMONELLA TYPHIMURIUM, Strain/Indicator: TA100, Metabolic Activation: RAT, LIVER, S-9, AROCLOR 1254, Method: PREINCUBATION) was “inactive; negative”, the mutagenic call (Test System: AMES SALMONELLA TYPHIMURIUM, Strain/Indicator: TA1535, Metabolic Activation: HAMSTER, LIVER, S-9, AROCLOR 1254, Method: PREINCUBATION) was “inactive; negative” and the mutagenic call [3] was “inactive; negative”. The mutagenic call (Test System: AMES SALMONELLA TYPHIMURIUM, Strain/Indicator: TA1535, Metabolic Activation: RAT, LIVER, S-9, AROCLOR 1254, Method: PREINCUBATION) was “inactive; negative”, the mutagenic call (Test System: AMES SALMONELLA TYPHIMURIUM, Strain/Indicator: TA1537, Metabolic Activation: HAMSTER, LIVER, S-9, AROCLOR 1254, Method: PREINCUBATION) was “inactive; negative” and the mutagenic call [4] was “inactive; negative”. For the same molecule, the mutagenic call (Test System: AMES SALMONELLA TYPHIMURIUM, Strain/Indicator: TA1537, Metabolic Activation: RAT, LIVER, S-9, AROCLOR 1254, Method: PREINCUBATION) was “inactive; negative” and the mutagenic call (Test System: MOUSE LYMPHOMA, Strain/Indicator: L5178Y (TK+/TK-), Metabolic Activation: RAT, LIVER, S-9, AROCLOR 1254, Method: SUSPENSION/PLATE) was “inactive; negative”.
